From US10577363B2, “Substituted piperidine compounds” (EPIZYME, INC., priority 2014, dated 2020)

How the values were obtained:
SMYD3 [1] = molecular target: T1, SMYD3 (Homo sapiens (Human), UniProt Q9H7B4); assay: SMYD3 biochemical assay (SPA, 3H-SAM methylation of MEKK2 protein substrate); settings: Table 2A; read-out: SMYD3 Biochem IC50
Outline: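 Methylation of N-terminally GST-tagged MEKK2 by untagged full-length human SMYD3, using 3H-SAM, in pH 8.0 Tris buffer with TCEP, BSG and Tween 20; enzyme and compound sat 30 min at room temperature before substrate addition. Stopped with 100 uM (final) cold SAM; incorporation read by scintillation proximity as dpm/cpm.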

SMYD3 [2] = molecular target: T1, SMYD3; assay: SMYD3 cell assay (Trimethyl-MEKK2 In-Cell Western in 293T/17 cells); assay type: cell-based; settings: Table 2A; read-out: SMYD3 Cell IC50
Outline: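 In-Cell Western readout: methanol-fixed cells stained for trimethyl-MEKK2 and flag tag, ratio per well normalized to DMSO and background controls.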

T1 sequence (Q9H7B4 whole entry): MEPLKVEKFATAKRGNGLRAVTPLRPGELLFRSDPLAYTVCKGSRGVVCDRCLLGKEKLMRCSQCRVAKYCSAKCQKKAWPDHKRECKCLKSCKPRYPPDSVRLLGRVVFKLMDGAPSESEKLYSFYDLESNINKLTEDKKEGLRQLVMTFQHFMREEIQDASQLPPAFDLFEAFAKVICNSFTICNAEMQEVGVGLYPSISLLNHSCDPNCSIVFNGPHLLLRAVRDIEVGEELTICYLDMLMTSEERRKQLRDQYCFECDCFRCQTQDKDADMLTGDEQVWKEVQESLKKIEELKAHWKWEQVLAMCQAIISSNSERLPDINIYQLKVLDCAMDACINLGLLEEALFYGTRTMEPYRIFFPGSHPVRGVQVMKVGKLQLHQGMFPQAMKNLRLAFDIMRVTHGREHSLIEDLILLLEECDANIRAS

SMILES | IC50 (SMYD3 [1]) | IC50 (SMYD3 [2])
O=C(N[C@H]1C[C@H]2CC[C@@H](C1)N2S(=O)(=O)CC1CCN(CCN2CCCCC2)CC1)c1cc(C2CC2)on1 [compound 549, 5-cyclopropyl-N-((1R,3r,5S)-8-(((1-(2-(piperidin-1-yl)ethyl)piperidin-4-yl)methyl)sulfonyl)-8-azabicyclo[3.2.1]octan-3-yl)isoxazole-3-carboxamide] | 0.0025 µM | 0.312 µM
CC(C)N1CCC(CS(=O)(=O)N2CC[C@H](NC(=O)c3cc(C4CC4)on3)C[C@@H]2C)CC1 [compound 550, 5-cyclopropyl-N-((2S,4S)-1-(((1-isopropylpiperidin-4-yl)methyl)sulfonyl)-2-methylpiperidin-4-yl)isoxazole-3-carboxamide] | 0.0026 µM | 0.168 µM
O=C(N[C@H]1C[C@H]2CC[C@@H](C1)N2S(=O)(=O)CC1CCN(CCC(F)(F)F)CC1)c1cc(C2CC2)on1 [compound 551, 5-cyclopropyl-N-((1R,3r,5S)-8-(((1-(3,3,3-trifluoropropyl)piperidin-4-yl)methyl)sulfonyl)-8-azabicyclo[3.2.1]octan-3-yl)isoxazole-3-carboxamide] | 0.0029 µM | 0.0542 µM
NC1CC2(C1)CN(S(=O)(=O)N1[C@@H]3CC[C@H]1C[C@@H](NC(=O)c1cc(C4CC4)on1)C3)C2 [compound 552, N-((1R,3r,5S)-8-((6-amino-2-azaspiro[3.3]heptan-2-yl)sulfonyl)-8-azabicyclo[3.2.1]octan-3-yl)-5-cyclopropylisoxazole-3-carboxamide] | 0.0031 µM | 0.0492 µM
C[C@H]1C[C@@H](NC(=O)c2cc(C3CC3)on2)CCN1S(=O)(=O)CC1CCN(CCN2CCCCC2)CC1 [compound 553, 5-cyclopropyl-N-((2S,4S)-2-methyl-1-(((1-(2-(piperidin-1-yl)ethyl)piperidin-4-yl)methyl)sulfonyl)piperidin-4-yl)isoxazole-3-carboxamide] | 0.0034 µM | 0.106 µM
COCCN1CCC(CS(=O)(=O)N2CC[C@H](NC(=O)c3cc(C4CC4)on3)C[C@@H]2C)CC1 [compound 554, 5-cyclopropyl-N-((2S,4S)-1-(((1-(2-methoxyethyl)piperidin-4-yl)methyl)sulfonyl)-2-methylpiperidin-4-yl)isoxazole-3-carboxamide] | 0.0035 µM | 0.0704 µM
COCCN1CCC(CS(=O)(=O)N2[C@@H]3CC[C@H]2C[C@@H](NC(=O)c2cc(C4CC4)on2)C3)CC1 [compound 556, 5-cyclopropyl-N-((1R,3r,5S)-8-(((1-(2-methoxyethyl)piperidin-4-yl)methyl)sulfonyl)-8-azabicyclo[3.2.1]octan-3-yl)isoxazole-3-carboxamide] | 0.0039 µM | 0.0557 µM
CC(C)CN1CCC(CS(=O)(=O)N2CC[C@H](NC(=O)c3cc(C4CC4)on3)C[C@@H]2C)CC1 [compound 557, 5-cyclopropyl-N-((2S,4S)-1-(((1-isobutylpiperidin-4-yl)methyl)sulfonyl)-2-methylpiperidin-4-yl)isoxazole-3-carboxamide] | 0.0042 µM | 0.261 µM
C[C@H]1C[C@@H](NC(=O)c2cc(C3CC3)on2)CCN1S(=O)(=O)N1CCNCC1 [compound 558, 5-cyclopropyl-N-((2S,4S)-2-methyl-1-(piperazin-1-ylsulfonyl)piperidin-4-yl)isoxazole-3-carboxamide] | 0.0043 µM | 0.0719 µM
CN1C2CCC1CN(S(=O)(=O)N1[C@@H]3CC[C@H]1C[C@@H](NC(=O)c1cc(C4CC4)on1)C3)C2 [compound 560, 5-cyclopropyl-N-((1R,3r,5S)-8-((8-methyl-3,8-diazabicyclo[3.2.1]octan-3-yl)sulfonyl)-8-azabicyclo[3.2.1]octan-3-yl)isoxazole-3-carboxamide] | 0.0048 µM | 0.0516 µM
CNCCNCCCS(=O)(=O)N1[C@@H]2CC[C@H]1C[C@@H](NC(=O)c1cc(C3CC3)on1)C2 [compound 563, 5-cyclopropyl-N-((1R,3r,5S)-8-((3-((2-(methylamino)ethyl)amino)propyl)sulfonyl)-8-azabicyclo[3.2.1]octan-3-yl)isoxazole-3-carboxamide] | 0.0053 µM | 0.339 µM
NCCNCCCS(=O)(=O)N1[C@@H]2CC[C@H]1C[C@@H](NC(=O)c1cc(C3CC3)on1)C2 [compound 564, N-((1R,3r,5S)-8-((3-((2-aminoethyl)amino)propyl)sulfonyl)-8-azabicyclo[3.2.1]octan-3-yl)-5-cyclopropylisoxazole-3-carboxamide] | 0.0053 µM | 0.166 µM
C[C@H]1C[C@@H](NC(=O)c2cc(C3CC3)on2)CCN1S(=O)(=O)N1CC2CCC(C1)N2C [compound 565, 5-cyclopropyl-N-((2S,4S)-2-methyl-1-((8-methyl-3,8-diazabicyclo[3.2.1]octan-3-yl)sulfonyl)piperidin-4-yl)isoxazole-3-carboxamide] | 0.006 µM | 0.0494 µM
C[C@H]1C[C@@H](NC(=O)c2cc(C3CC3)on2)CCN1S(=O)(=O)CCCNCc1ccc(C(F)(F)F)cc1 [compound 566, 5-cyclopropyl-N-((2S,4S)-2-methyl-1-((3-((4-(trifluoromethyl)benzyl)amino)propyl)sulfonyl)piperidin-4-yl)isoxazole-3-carboxamide] | 0.0061 µM | 0.322 µM
C[C@H]1CN(S(=O)(=O)N2CCC(N)CC2)CC[C@H]1NC(=O)c1cc(C2CC2)on1 [compound 567, N-((3S,4R)-1-((4-aminopiperidin-1-yl)sulfonyl)-3-methylpiperidin-4-yl)-5-cyclopropylisoxazole-3-carboxamide] | 0.0061 µM | 0.113 µM
C[C@@H]1C[C@H](NC(=O)c2cc(C3CC3)on2)CCN1S(=O)(=O)CC1CCN(C)CC1 [compound 568, 5-cyclopropyl-N-((2R,4R)-2-methyl-1-(((1-methylpiperidin-4-yl)methyl)sulfonyl)piperidin-4-yl)isoxazole-3-carboxamide] | 0.0063 µM | 0.156 µM
O=C(N[C@H]1C[C@H]2CC[C@@H](C1)N2S(=O)(=O)C[C@@H]1CCCNC1)c1cc(C2CC2)on1 [compound 569, 5-cyclopropyl-N-((1R,3R,5S)-8-((((R)-piperidin-3-yl)methyl)sulfonyl)-8-azabicyclo[3.2.1]octan-3-yl)isoxazole-3-carboxamide] | 0.0066 µM | 0.0394 µM
C[C@H]1C[C@@H](NC(=O)c2cc(C3CC3)on2)CCN1S(=O)(=O)N1CC2CC1CN2 (stereo partly drawn) [compound 570, N-((2S,4S)-1-((2,5-diazabicyclo[2.2.1]heptan-2-yl)sulfonyl)-2-methylpiperidin-4-yl)-5-cyclopropylisoxazole-3-carboxamide] | 0.0067 µM | 0.0839 µM
O=C(N[C@H]1C[C@H]2CC[C@@H](C1)N2S(=O)(=O)N1CC2CC(C1)N2)c1cc(C2CC2)on1 [compound 571, N-((1R,3r,5S)-8-((3,6-diazabicyclo[3.1.1]heptan-3-yl)sulfonyl)-8-azabicyclo[3.2.1]octan-3-yl)-5-cyclopropylisoxazole-3-carboxamide] | 0.0075 µM | 0.0992 µM
C[C@H]1CN(S(=O)(=O)N2CC[C@H](NC(=O)c3cc(C4CC4)on3)C[C@@H]2C)CCN1 [compound 572, 5-cyclopropyl-N-((2S,4S)-2-methyl-1-(((S)-3-methylpiperazin-1-yl)sulfonyl)piperidin-4-yl)isoxazole-3-carboxamide] | 0.0078 µM | 0.0536 µM
C[C@@H]1C[C@H](NC(=O)c2cc(C3CC3)on2)CCN1S(=O)(=O)CC1CCN(Cc2ccccc2)CC1 [compound 573, N-((2R,4R)-1-(((1-benzylpiperidin-4-yl)methyl)sulfonyl)-2-methylpiperidin-4-yl)-5-cyclopropylisoxazole-3-carboxamide] | 0.008 µM | 0.293 µM
C[C@H]1C[C@@H](NC(=O)c2cc(C3CC3)on2)CCN1S(=O)(=O)C1CCN(C)CC1 [compound 574, 5-cyclopropyl-N-((2S,4S)-2-methyl-1-((1-methylpiperidin-4-yl)sulfonyl)piperidin-4-yl)isoxazole-3-carboxamide] | 0.008 µM | 0.105 µM
O=C(N[C@H]1C[C@H]2CC[C@@H](C1)N2S(=O)(=O)C[C@H]1CCCNC1)c1cc(C2CC2)on1 [compound 575, 5-cyclopropyl-N-((1R,3S,5S)-8-((((S)-piperidin-3-yl)methyl)sulfonyl)-8-azabicyclo[3.2.1]octan-3-yl)isoxazole-3-carboxamide] | 0.008 µM | 0.0674 µM
C[C@H]1C[C@@H](NC(=O)c2cc(C3CC3)on2)CCN1S(=O)(=O)CCCCN(C)C [compound 576, 5-cyclopropyl-N-((2S,4S)-1-((4-(dimethylamino)butyl)sulfonyl)-2-methylpiperidin-4-yl)isoxazole-3-carboxamide] | 0.0081 µM | 0.106 µM
C[C@H]1C[C@@H](NC(=O)c2cc(C3CC3)on2)CCN1S(=O)(=O)N1CC2CCC1CN2 (stereo partly drawn) [compound 577, N-((2S,4S)-1-((2,5-diazabicyclo[2.2.2]octan-2-yl)sulfonyl)-2-methylpiperidin-4-yl)-5-cyclopropylisoxazole-3-carboxamide] | 0.0092 µM | 0.134 µM
C[C@H]1C[C@@H](NC(=O)c2cc(C3CC3)on2)CCN1S(=O)(=O)CCCNCc1ccc2ccccc2c1 [compound 578, 5-cyclopropyl-N-((2S,4S)-2-methyl-1-((3-((naphthalen-2-ylmethyl)amino)propyl)sulfonyl)piperidin-4-yl)isoxazole-3-carboxamide] | 0.0094 µM | 0.289 µM
C[C@@H]1C[C@H](NC(=O)c2cc(C3CC3)on2)CCN1S(=O)(=O)CC1CCN(CCN2CCCCC2)CC1 [compound 579, 5-cyclopropyl-N-((2R,4R)-2-methyl-1-(((1-(2-(piperidin-1-yl)ethyl)piperidin-4-yl)methyl)sulfonyl)piperidin-4-yl)isoxazole-3-carboxamide] | 0.0095 µM | 0.587 µM
